Measurements reported in publication PMC6759758, “Cofactor Selectivity in Methylmalonyl Coenzyme A Mutase, a Model Cobamide-Dependent Enzyme” (mBio, 2019).

Key:
[1] = system: S. meliloti cobD::gus Gm^r metH::Tn5 ΔnrdJ pMS03-nrdABEc^+; experiment: MCM-dependent growth of S. meliloti on isoleucine/valine; type: cell-based, Sinorhizobium meliloti; settings: for EC50 fold higher than CNCbl: MCM-dependent growth; for EC50: OD600 at 145 h, L-isoleucine and L-valine as sole carbon sources, average and SD for five or more biological replicates, read-out: EC50 (concentration required to achieve half of the maximal OD600)
Experimental: Because nrdJ is essential, the E. coli cobamide-independent ribonucleotide reductase encoded by nrdA and nrdB was expressed from the pMS03 plasmid ([143]). The strain was precultured in M9 medium ([144]) (modified concentration of MgSO4: 1 mM) containing 0.1% sucrose, 2 g/liter isoleucine, 2 g/liter valine, 1 g/liter methionine, and 20 μg/ml gentamicin, with shaking at 30°C. After 2 days, cells were washed and diluted to an OD600 of 0.02 into M9 medium containing 4 g/liter isoleucine, 4 g/liter valine, 1 g/liter methionine, 20 μg/ml gentamicin, and cobamides at various concentrations as indicated for each experiment, in 384-well plates. The plates were incubated at 30°C for 145 h in a BioTek Synergy 2 plate reader with linear shaking at 1,140 cpm. OD600 was measured in 1-h increments.

[2] = target: T1, SmMCM (methylmalonyl-CoA mutase from S. meliloti) (Rhizobium meliloti, UniProt O86028); experiment: biochemical; type: binding, Sinorhizobium meliloti; settings: SmMCM 0.2 μM, pH 7.5, 30°C; average and standard deviation for three or more independent experiments; n. d. = binding too weak to determine Kd
T1 construct: made in house; host or cells: E. coli BL21(DE3)pLysS
T1 sequence (O86028 2-712): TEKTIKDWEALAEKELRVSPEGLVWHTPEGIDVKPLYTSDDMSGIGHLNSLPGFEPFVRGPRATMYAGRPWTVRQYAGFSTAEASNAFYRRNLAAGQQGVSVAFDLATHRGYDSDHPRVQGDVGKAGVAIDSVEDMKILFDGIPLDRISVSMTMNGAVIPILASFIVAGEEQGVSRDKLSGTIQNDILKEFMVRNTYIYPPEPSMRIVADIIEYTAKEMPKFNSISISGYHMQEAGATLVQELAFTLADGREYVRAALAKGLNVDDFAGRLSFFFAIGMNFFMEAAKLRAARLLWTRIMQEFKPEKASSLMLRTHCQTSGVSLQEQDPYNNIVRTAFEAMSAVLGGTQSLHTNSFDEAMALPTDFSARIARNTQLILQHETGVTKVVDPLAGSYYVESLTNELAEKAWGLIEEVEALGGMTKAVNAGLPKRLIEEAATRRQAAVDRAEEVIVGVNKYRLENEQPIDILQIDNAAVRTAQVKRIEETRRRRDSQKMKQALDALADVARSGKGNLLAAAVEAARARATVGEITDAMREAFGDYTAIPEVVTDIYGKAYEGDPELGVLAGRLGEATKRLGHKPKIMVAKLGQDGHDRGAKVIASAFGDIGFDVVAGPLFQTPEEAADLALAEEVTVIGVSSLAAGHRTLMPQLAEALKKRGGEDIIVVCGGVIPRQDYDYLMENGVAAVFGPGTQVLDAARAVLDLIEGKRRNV
Experimental: (§1) All steps involving cobamides were conducted in the dark. The plate was centrifuged for 1 min at 3,800 rpm to level the surface of the liquid in each well. The plate was then incubated for 40 min at 30°C to allow binding, with a brief shaking step after 30 min. […] Following incubation, fluorescence emission at 340 nm (5-nm slit width) was measured upon excitation at 282 nm (5-nm slit width) using a Tecan Infinite M1000 Pro plate reader. Fluorescence, normalized to the initial value, was plotted as a function of cobamide concentration, and fitted to the following equation ([134]): F/F0=1+ΔFmax/F0([E]+[L]+Kd)−([E]+[L]+Kd)^2−4[E][L]/2[E] where F is fluorescence, F0 is initial fluorescence, [E] is total enzyme concentration, [L] is total ligand concentration, and Kd is the binding dissociation constant.

EcMCM (E. coli MCM) = target: T2, EcMCM (E. coli MCM) (Escherichia coli, UniProt P27253); experiment: Fluorescence binding assay, EcMCM; settings: read-out: Kd EcMCM; fitted curve, error = standard error of the curve fit
T2 construct: 6xHis (N); made in house; host or cells: E. coli BL21(DE3)
Experimental: as §1

VpMCM (V. parvula MCM) = VpMCM (V. parvula MCM) (Veillonella parvula, UniProt A0A124EFR6); experiment: Fluorescence binding assay, VpMCM; settings: fitted curve, error = standard error of the curve fit; equimolar α and β subunits
Experimental: The α subunit of VpMCM (encoded by Vpar_RS09005) was expressed with an N-terminal 6×His tag from the pET-Duet expression vector in E. coli BL21(DE3). Protein expression was induced with 520 μM IPTG for 6 h at 30°C. The protein was batch purified by nickel affinity and subsequently purified by FPLC using a HiTrapQ column with an NaCl gradient from 50 to 500 mM in […], pH 8.0, 10% glycerol. The β subunit of VpMCM (encoded by Vpar_RS09000) was expressed separately with an N-terminal 6×His tag from the pET-Duet expression vector in E. coli BL21(DE3). […] Purified protein was dialyzed into 25 mM Tris-HCl, pH 8.0, 300 mM NaCl, 10% glycerol, and 1 mM β-mercaptoethanol. Concentration of pure α and β subunits (Fig. S7) was determined by absorbance at 280 nm (A280) using the theoretically calculated extinction coefficients 75,290 M^−1 cm^−1 and 74,260 M^−1 cm^−1, respectively ([125]). Equimolar amounts of α and β subunits were combined during the setup of fluorescence binding assays.
as §1

[3] = target: T3, SmMCM (Sinorhizobium meliloti MCM) (Rhizobium meliloti, UniProt O86028); experiment: Thiokinase-coupled spectrophotometric MCM activity assay; type: biochemical; settings: SmMCM 50 nM reconstituted with 2 μM cobamide; (R)-methylmalonyl-CoA to succinyl-CoA, steady state, 30°C
T3 construct: made in house; host or cells: E. coli BL21(DE3)pLysS
T3 sequence (O86028 2-712): T1 sequence (O86028 2-712)
Experimental: Final concentrations of reagents in the assays were as follows: Tris-phosphate buffer (pH 7.5), 100 mM Tris, 50 mM phosphate; dithionitrobenzoate (DTNB), 400 μM; ADP, 1 mM; MgCl2, 10 mM; (R)-methylmalonyl-CoA, 0 to 4 mM; thiokinase, 5 μM; MCM, 50 nM; and cobamides, 2 μM.
Three separate mixes were prepared, all in 1× Tris-phosphate buffer: an assay mix containing DTNB, ADP, and MgCl2; a substrate mix containing (R)-methylmalonyl-CoA; and an enzyme mix containing thiokinase, MCM, and cobamides. All steps involving cobamides were conducted in the dark. The assay and enzyme mixes were prepared as a master mix and aliquoted into 96-well plates; substrate mixes were prepared in individual wells, in triplicate. All components were incubated at 30°C for 40 min to equilibrate temperature and allow prebinding of cobamides and MCM. After incubation, one replicate at a time, the substrate mix was added to the assay mix, followed by the enzyme mix. Absorbance at 412 nm (A412) was recorded immediately after addition of enzyme and for 1 to 3 min, every 3 s, on a BioTek Synergy 2 plate reader. The increase in A412 in reaction mixtures lacking substrate was subtracted from all readings, to account for reactivity of DTNB with thiols on protein surfaces.

MCM = system: MCM; parameters: method as in PMID 14235521; settings: cited from earlier work

T2 sequence (P27253 whole entry): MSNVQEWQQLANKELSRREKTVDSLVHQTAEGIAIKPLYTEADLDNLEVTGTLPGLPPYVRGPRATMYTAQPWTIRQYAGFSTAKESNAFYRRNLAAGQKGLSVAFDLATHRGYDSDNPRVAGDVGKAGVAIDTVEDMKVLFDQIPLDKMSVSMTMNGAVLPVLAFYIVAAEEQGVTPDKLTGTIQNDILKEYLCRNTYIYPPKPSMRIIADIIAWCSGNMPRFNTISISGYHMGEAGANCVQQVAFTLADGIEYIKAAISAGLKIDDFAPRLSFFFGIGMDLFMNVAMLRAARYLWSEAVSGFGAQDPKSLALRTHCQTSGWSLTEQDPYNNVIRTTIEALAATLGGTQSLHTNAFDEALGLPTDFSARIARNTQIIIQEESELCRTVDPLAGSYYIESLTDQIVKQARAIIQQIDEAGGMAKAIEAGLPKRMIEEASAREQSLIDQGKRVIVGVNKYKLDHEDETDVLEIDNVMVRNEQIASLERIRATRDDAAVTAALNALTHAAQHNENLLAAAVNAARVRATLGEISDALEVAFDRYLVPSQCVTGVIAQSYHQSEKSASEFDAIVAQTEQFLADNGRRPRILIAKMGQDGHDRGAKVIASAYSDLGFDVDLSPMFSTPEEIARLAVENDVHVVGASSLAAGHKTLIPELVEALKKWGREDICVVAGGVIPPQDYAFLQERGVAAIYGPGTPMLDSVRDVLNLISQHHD
Sequence of VpMCM (V. parvula MCM) (A0A124EFR6 entry or part of it): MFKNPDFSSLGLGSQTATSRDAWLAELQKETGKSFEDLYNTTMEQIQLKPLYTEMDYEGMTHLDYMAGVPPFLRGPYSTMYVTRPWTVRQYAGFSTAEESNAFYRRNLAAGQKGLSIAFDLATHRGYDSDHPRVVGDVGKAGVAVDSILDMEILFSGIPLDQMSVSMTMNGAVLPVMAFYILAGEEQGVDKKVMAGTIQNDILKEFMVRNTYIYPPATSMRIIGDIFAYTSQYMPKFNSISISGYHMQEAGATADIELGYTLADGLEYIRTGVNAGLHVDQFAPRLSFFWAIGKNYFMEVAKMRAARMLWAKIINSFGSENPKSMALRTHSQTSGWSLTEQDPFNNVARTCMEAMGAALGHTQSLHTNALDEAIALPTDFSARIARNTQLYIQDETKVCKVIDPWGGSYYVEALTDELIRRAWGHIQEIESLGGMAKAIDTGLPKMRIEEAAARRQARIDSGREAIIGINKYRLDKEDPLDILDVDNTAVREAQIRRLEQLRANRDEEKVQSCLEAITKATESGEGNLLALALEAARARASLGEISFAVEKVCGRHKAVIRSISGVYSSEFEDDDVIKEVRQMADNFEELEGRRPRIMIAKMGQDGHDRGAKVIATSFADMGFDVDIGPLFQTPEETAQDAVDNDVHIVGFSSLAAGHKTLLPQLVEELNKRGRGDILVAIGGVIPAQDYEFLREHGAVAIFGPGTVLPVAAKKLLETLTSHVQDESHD

Molecule	EC50 [1]	Kd [2]	also measured
2-Methyladeninylcobamide [CN[2-MeAde]Cba]	24 ± 9 nM	–	EC50 fold higher than CNCbl [1]: 5 fold
5-Hydroxybenzimidazolylcobamide [CN[5-OHBza]Cba]	400 ± 100 nM	–	–
C/C1=C2/[N-][C@H]([C@H](CC(N)=O)[C@@]2(C)CCC(=O)NC[C@@H](C)OP(=O)([O-])O[C@H]2[C@@H](O)[C@@H](n3cnc4nc(C)nc(N)c43)O[C@@H]2CO)[C@]2(C)N=C(/C(C)=C3N=C(/C=C4N=C1[C@@H](CCC(N)=O)C\4(C)C)[C@@H](CCC(N)=O)[C@]\3(C)CC(N)=O)[C@@H](CCC(N)=O)[C@]2(C)CC(N)=O.[CH2-][C@H]1O[C@@H](n2cnc3c(N)ncnc32)[C@H](O)[C@@H]1O.[Co+3] [Ado[2-MeAde]Cba, 2-Methyladeninylcobamide]	–	1700 ± 700 nM	Kd (EcMCM (E. coli MCM)): 350 ± 40 nM; Kd (VpMCM (V. parvula MCM)): 1500 ± 200 nM
C/C1=C2/[N-][C@H]([C@H](CC(N)=O)[C@@]2(C)CCC(=O)NC[C@@H](C)OP(=O)([O-])O[C@H]2[C@@H](O)[C@@H](n3cnc4cc(C)ccc43)O[C@@H]2CO)[C@]2(C)N=C(/C(C)=C3N=C(/C=C4N=C1[C@@H](CCC(N)=O)C\4(C)C)[C@@H](CCC(N)=O)[C@]\3(C)CC(N)=O)[C@@H](CCC(N)=O)[C@]2(C)CC(N)=O.[CH2-][C@H]1O[C@@H](n2cnc3c(N)ncnc32)[C@H](O)[C@@H]1O.[Co+3] [Ado[5-MeBza]Cba, 5-Methylbenzimidazolylcobamide]	–	100 ± 40 nM	kcat [3]: 12.8 ± 0.5 s⁻¹
C/C1=C2/[N-][C@H]([C@H](CC(N)=O)[C@@]2(C)CCC(=O)NC[C@@H](C)OP(=O)([O-])O[C@H]2[C@@H](O)[C@@H](n3cnc4cccc(N)c43)O[C@@H]2CO)[C@]2(C)N=C(/C(C)=C3N=C(/C=C4N=C1[C@@H](CCC(N)=O)C\4(C)C)[C@@H](CCC(N)=O)[C@]\3(C)CC(N)=O)[C@@H](CCC(N)=O)[C@]2(C)CC(N)=O.[CH2-][C@H]1O[C@@H](n2cnc3c(N)ncnc32)[C@H](O)[C@@H]1O.[Co+3] [Ado[7-AmBza]Cba, 7-Aminobenzimidazolylcobamide]	–	700 ± 100 nM	–
C/C1=C2/[N-][C@H]([C@H](CC(N)=O)[C@@]2(C)CCC(=O)NC[C@@H](C)OP(=O)([O-])O[C@H]2[C@@H](O)[C@@H](n3cnc4cccc(C)c43)O[C@@H]2CO)[C@]2(C)N=C(/C(C)=C3N=C(/C=C4N=C1[C@@H](CCC(N)=O)C\4(C)C)[C@@H](CCC(N)=O)[C@]\3(C)CC(N)=O)[C@@H](CCC(N)=O)[C@]2(C)CC(N)=O.[CH2-][C@H]1O[C@@H](n2cnc3c(N)ncnc32)[C@H](O)[C@@H]1O.[Co+3] [Ado[7-MeBza]Cba, 7-Methylbenzimidazolylcobamide]	–	100 ± 20 nM	–
C/C1=C2/[N-][C@H]([C@H](CC(N)=O)[C@@]2(C)CCC(=O)NC[C@@H](C)OP(=O)([O-])O[C@H]2[C@@H](O)[C@@H](n3cnc4ccccc43)O[C@@H]2CO)[C@]2(C)N=C(/C(C)=C3N=C(/C=C4N=C1[C@@H](CCC(N)=O)C\4(C)C)[C@@H](CCC(N)=O)[C@]\3(C)CC(N)=O)[C@@H](CCC(N)=O)[C@]2(C)CC(N)=O.[CH2-][C@H]1O[C@@H](n2cnc3c(N)ncnc32)[C@H](O)[C@@H]1O.[Co+3] [Ado[Bza]Cba, Benzimidazolylcobamide]	–	400 ± 200 nM	Kd (EcMCM (E. coli MCM)): 1800 ± 200 nM; Kd (VpMCM (V. parvula MCM)): 1400 ± 300 nM; MCM activity in S. meliloti bacteroids (MCM): intermediate
C/C1=C2/[N-][C@H]([C@H](CC(N)=O)[C@@]2(C)CCC(=O)NC[C@@H](C)OP(=O)([O-])O[C@H]2[C@@H](O)[C@@H](Oc3ccc(C)cc3)O[C@@H]2CO)[C@]2(C)N=C(/C(C)=C3N=C(/C=C4N=C1[C@@H](CCC(N)=O)C\4(C)C)[C@@H](CCC(N)=O)[C@]\3(C)CC(N)=O)[C@@H](CCC(N)=O)[C@]2(C)CC(N)=O.[CH2-][C@H]1O[C@@H](n2cnc3c(N)ncnc32)[C@H](O)[C@@H]1O.[Co+3] [Ado[Cre]Cba, para-Cresolylcobamide]	–	50 ± 10 nM	Kd (EcMCM (E. coli MCM)): 620 ± 90 nM; Kd (VpMCM (V. parvula MCM)): 1300 ± 100 nM; kcat [3]: 15 ± 1 s⁻¹
C/C1=C2/[N-][C@H]([C@H](CC(N)=O)[C@@]2(C)CCC(=O)NC[C@@H](C)OP(=O)([O-])O[C@H]2[C@@H](O)[C@@H](Oc3ccccc3)O[C@@H]2CO)[C@]2(C)N=C(/C(C)=C3N=C(/C=C4N=C1[C@@H](CCC(N)=O)C\4(C)C)[C@@H](CCC(N)=O)[C@]\3(C)CC(N)=O)[C@@H](CCC(N)=O)[C@]2(C)CC(N)=O.[CH2-][C@H]1O[C@@H](n2cnc3c(N)ncnc32)[C@H](O)[C@@H]1O.[Co+3] [Ado[Phe]Cba, Phenolylcobamide]	–	200 ± 30 nM	Kd (EcMCM (E. coli MCM)): 1300 ± 200 nM; Kd (VpMCM (V. parvula MCM)): 5000 ± 1000 nM; kcat [3]: 8.3 ± 0.4 s⁻¹
C#N.C/C1=C2/N[C@H]([C@H](CC(N)=O)[C@@]2(C)CCC(=O)NC[C@@H](C)OP(=O)(O)O[C@H]2[C@@H](O)[C@@H](n3cnc4ncnc(N)c43)O[C@@H]2CO)[C@]2(C)N=C(/C(C)=C3N=C(/C=C4N=C1[C@@H](CCC(N)=O)C\4(C)C)[C@@H](CCC(N)=O)[C@]\3(C)CC(N)=O)[C@@H](CCC(N)=O)[C@]2(C)CC(N)=O.[Co] [CN[Ade]Cba, Adeninylcobamide]	350 ± 90 nM	–	–
Benzimidazolylcobamide [CN[Bza]Cba]	27 ± 7 nM	–	EC50 fold higher than CNCbl [1]: 5 fold
Phenolylcobamide [CN[Phe]Cba]	400 ± 100 nM	–	–
Purinylcobamide [CN[Pur]Cba]	600 ± 200 nM	–	–
cyanocobalamin [CNCbl, reference compound]	5 ± 1 nM	–	–
para-Cresolylcobamide [CN[Cre]Cba]	700 ± 100 nM	–	–
